Values quoted from earlier work as cited in US7446098B2, “Combination therapy for treating protein deficiencies” (Mount Sinai School of Medicine of New York University, priority 2003, dated 2008).
Where a chain is given by its changes, count along the chain named.

Legend:
wild-type α-Gal A = target: T1, wild-type α-Gal A (Homo sapiens, UniProt P06280); details: transfected COS-7 cells; cited from earlier work
T1 construct: expressed in transfected cells; host or cells: COS-7
T1 sequence (P06280 32-429): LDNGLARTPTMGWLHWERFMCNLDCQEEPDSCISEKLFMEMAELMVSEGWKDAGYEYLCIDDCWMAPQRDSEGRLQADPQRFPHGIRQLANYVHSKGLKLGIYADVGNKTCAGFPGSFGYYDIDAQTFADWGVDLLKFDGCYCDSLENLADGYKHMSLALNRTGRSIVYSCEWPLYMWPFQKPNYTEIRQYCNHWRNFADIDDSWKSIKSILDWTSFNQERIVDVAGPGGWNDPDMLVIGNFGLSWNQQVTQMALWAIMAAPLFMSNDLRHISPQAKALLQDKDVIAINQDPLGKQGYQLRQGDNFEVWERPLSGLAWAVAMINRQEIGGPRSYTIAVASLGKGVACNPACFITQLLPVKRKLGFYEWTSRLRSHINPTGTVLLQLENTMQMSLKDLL

mutant α-Gal A (R301Q) = target: T2, mutant α-Gal A (R301Q) (Homo sapiens, UniProt P06280, R301Q); details: neutral pH; cited from earlier work
T2 sequence (P06280 32-429 R301Q): T1 sequence (P06280 32-429) with R270Q

[1] = test system: mutant α-Gal A (R301Q or Q279E); details: lymphoblasts from Fabry patients with R301Q or Q279E mutations; cited from earlier work
mutant (R301Q) α-Gal A = target: T3, mutant (R301Q) α-Gal A (Homo sapiens, UniProt P06280, R301Q); details: oral administration; transgenic mice overexpressing mutant (R301Q) α-Gal A; cited from earlier work
T3 construct: expressed in transfected cells; host or cells: transgenic mice (major organs)
T3 sequence (P06280 32-429 R301Q): T1 sequence (P06280 32-429) with R270Q

OC[C@H]1NC[C@H](O)[C@@H](O)[C@H]1O [DGJ, 1-deoxygalactonojirimycin]
activity of wild-type α-Gal A (wild-type α-Gal A): able to increase
amount of wild-type α-Gal A (wild-type α-Gal A): able to increase
in vitro stability of mutant α-Gal A (R301Q) (mutant α-Gal A (R301Q)): effectively increased
mutant enzyme activity in lymphoblasts [1]: enhanced
enzyme activity in major organs (mutant (R301Q) α-Gal A): substantially elevated
